Data on seven compounds can be found in PMC10498667 (Chemical Science, 2023).

Where two headings read alike, the source gives them in different places.

By IC50 is commonly meant the concentration at which inhibition is half-maximal.

What all share (type): biochemical
The target of experiment [1] is T1, Electric eel acetylcholinesterase (eeAChE) (Electrophorus electricus, UniProt O42275).
T1 construct: purchased Invitrogen (AChE assay kit)
Briefly: Fluorometric AChE activity assay. The source says: Inhibiting the activity of AChE can maintain a proper level of ACh under dysregulated cholinergic conditions.[10,11] Thus, the inhibitory capability of flavonoids against AChE was investigated by a previously reported fluorescent AChE assay with slight modifications.[60] […] The inclusion of three hydroxyl groups on the A ring is critical for controlling the catalytic activity of AChE, as previously reported,[49] whereas the incorporation of a chloro substituent, with three hydroxyl groups, and methoxy moieties instead of hydroxyl groups on the A ring can decrease such inhibitory activity. Flavonoids 2, 3, and 1b over 1 illustrates the importance of the position of hydroxyl groups on the A ring and the isoflavone variation in directing the flavonoids' ability to inhibit the activity of AChE. […]
All experiments were performed in triplicate.
AChE Activity Assay. The AChE inhibitory activity of flavonoids was measured by a fluorometric AChE assay kit (Invitrogen) following the manufacturer ’s protocol with slight modifications.
Electric eel acetylcholinesterase (eeAChE) was dissolved and diluted with a working solution. The eeAChE solution (50 µL) was added into a 96-well plate. Various concentrations of flavonoids were then introduced into the 96-well plate. The final concentrations of flavonoids were as follow: […]
µM). After shaking, the mixture of eeAChE and flavonoids was pre-incubated for 15 min. A reaction mixture containing acetylcholine, an AChE probe, and AbRedTM was added into the 96-well plate to initiate the reaction. The AChE activity was calculated based on the fluorescence intensity (lex/lem = 571/585 nm) of the wells that was detected after 15 min incubation. Data were normalized to the control (no inhibitor). All experiments were performed in triplicate. […]
For the disaggregation studies, Ab (25 µM) was incubated with and without CuCl2 or ZnCl2 (25 µM) for 24 h at 37 °C with constant agitation to generate preformed Ab aggregates. The resultant Ab aggregates were then treated with flavonoids (50 µM) and incubated for additional 24 h with constant agitation. For the additional disaggregation experiments, preformed Ab42 aggregates (25 µM) or Ab42 seeds (10% v/v) with or without metal ions (25 µM for CuCl2 and ZnCl2) were incubated with flavonoids (50 µM) for 24 h with constant agitation. The resultant Ab aggregates were then treated with freshly prepared Ab42

Experiment [2] deals with preformed Aβ42 and Aβ40 aggregates. Briefly: Disaggregation experiments with preformed Aβ aggregates. The note with it: Aβ42 and Aβ40, with and without Cu(II), Zn(II); flavonoid 50 μM; 24 h. Here is the method: To verify whether a series of nine flavonoids can modulate the aggregation of Aβ with and without metal ions, the molecular weight (MW) distribution and morphology of the resultant Aβ species were determined by gel electrophoresis with western blotting (gel/western blot) using an anti-Aβ antibody (6E10) and transmission electron microscopy (TEM), respectively. Two types of experiments were carried out employing two major Aβ isoforms, i.e., Aβ42 and Aβ40:[25] (i) inhibition studies to identify the effect of 1–5, 1a, 1b, 4a, and 4b on the formation of Aβ aggregates; (ii) disaggregation studies to evaluate if the flavonoids with reactivities towards Aβ aggregation in inhibition studies can disassemble preformed Aβ aggregates or modulate their further aggregation, as illustrated in Fig. 4 and S5–S9. ^† Moreover, the solutions containing the flavonoids and Cu(II) were probed by electronic absorption (Abs) spectroscopy to monitor their metal binding. […] As expected, no Abs change of 1a and 4a composed of methoxy groups on the A ring was detected by addition of Cu(II). […]
Ab Aggregation Experiments. Ab was dissolved in ammonium hydroxide [1% w/w NH4OH (aq)] and the resulting solution was aliquoted, lyophilized overnight, and stored at –80 °C. A stock solution of Ab was then prepared by dissolving the lyophilized peptide with NH4OH (1% w/w, aq; 10 µL) and diluting with ddH2O. All Ab samples were prepared following previously reported procedures.21,22 The concentration of the peptide solution was determined by measuring its […]
solution (20 mM HEPES, pH 7.4, 150 mM NaCl) was used for preparing Ab samples. For the inhibition studies, flavonoids (final concentration, 50 µM; 1% v/v DMSO) were added to the samples of Ab (25 µM) in the absence and presence of CuCl2 or ZnCl2 (25 µM) followed by incubation for 24 h at 37 °C with constant agitation. For the disaggregation studies, Ab (25 µM) was incubated with and without CuCl2 or ZnCl2 (25 µM) for 24 h at 37 °C with constant agitation to generate preformed Ab aggregates. The resultant Ab aggregates were then treated with flavonoids (50 µM) and incubated for additional 24 h with constant agitation. […]

Experiment [3] has as its target T2, Aβ42 (Homo sapiens, UniProt P05067).
T2 construct: purchased Peptide Institute, Inc. (Osaka, Japan)
The experiment in a line: Dot blot assay with anti-oligomer (A11) and anti-fibril (OC) antibodies. Particulars: flavonoid 200 μM, up to 24 h. An excerpt:
Moreover, to investigate the effects of the flavonoids on the oligomerization and fibrilization of metal-free Aβ42 and metal–Aβ42, we performed the dot blot assay employing anti-oligomer (A11) and anti-fibril (OC) antibodies,[23] as illustrated in Fig. S12. ^† It should be noted that the thioflavin-T (ThT) assay utilized for monitoring the formation of β-sheet-rich aggregates cannot be carried out under our experimental conditions since the absorption windows of 4, 5, and 4b interfere with the excitation and emission wavelengths of ThT (Fig. S13 ^†). […]
Dot Blot Assay. The samples containing Ab42 (100 µM) with or without CuCl2 or ZnCl2 (100 µM) in the absence and presence of flavonoids (200 µM; 1% v/v DMSO) were prepared in 20 mM HEPES, pH 7.4, 150 mM NaCl and incubated for various time points (0, 1, 2, 3, 4, 6, 12, and 24 h). […] The membrane was incubated with a primary antibody [i.e., 6E1026 for Ab species (1:2,000), A1126 for Ab oligomers (1:1,000; Invitrogen, Carlsbad, CA, USA), or OC26 for Ab fibrils (1:2,000; Merch Millipore, Billerica, MA, USA)] in the solution of BSA (2% w/v in TBS-T) for 4 h at room temperature. […] A homemade ECL kit21–23 was used to visualize the results on a ChemiDoc MP Imaging System.
The intensity observed from A11- or OC-detectable Ab species was quantified, relative to that detected from 6E10, by the ImageJ software. […]

The mark [4] stands for this setting: fluorometric assay, eeAChE, read-out: IC50 for AChE inhibition.
Where [5] appears, read: Cu(II)–Aβ42 or Zn(II)–Aβ42 100 μM.

T1 sequence (O42275 24-633): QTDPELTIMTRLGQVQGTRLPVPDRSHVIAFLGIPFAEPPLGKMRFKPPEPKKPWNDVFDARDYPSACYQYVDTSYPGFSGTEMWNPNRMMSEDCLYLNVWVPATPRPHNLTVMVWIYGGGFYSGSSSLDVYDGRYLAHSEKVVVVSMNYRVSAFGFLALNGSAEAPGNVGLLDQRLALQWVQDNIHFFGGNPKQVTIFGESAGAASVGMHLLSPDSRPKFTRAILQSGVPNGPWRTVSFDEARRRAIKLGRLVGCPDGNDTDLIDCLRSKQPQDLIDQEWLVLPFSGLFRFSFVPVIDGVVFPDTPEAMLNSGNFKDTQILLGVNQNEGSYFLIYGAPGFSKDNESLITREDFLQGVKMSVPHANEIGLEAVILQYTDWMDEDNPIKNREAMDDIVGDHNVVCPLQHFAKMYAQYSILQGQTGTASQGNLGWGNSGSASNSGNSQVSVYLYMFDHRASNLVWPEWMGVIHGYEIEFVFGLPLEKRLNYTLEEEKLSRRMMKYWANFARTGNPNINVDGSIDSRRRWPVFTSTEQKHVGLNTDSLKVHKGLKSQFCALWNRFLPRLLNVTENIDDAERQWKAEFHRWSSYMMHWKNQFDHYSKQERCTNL
T2 sequence (P05067 672-713 limits assumed): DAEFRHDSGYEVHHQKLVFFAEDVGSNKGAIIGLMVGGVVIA

Consider `O=c1c(-c2ccccc2)coc2cc(O)c(O)c(O)c12` [4b, 5,6,7-trihydroxyisoflavone], for which the concentration for half-maximal inhibition (IC50) in experiment [1] (setting [4]) stood at 1.4 µM. Further, in experiment [2], the “effect on preformed metal-free Aβ and metal–Aβ aggregates” value is “could disassemble preformed metal-free Aβ and metal–Aβ aggregates”. Further, the “A11- and OC-detectable signals (oligomers and fibrils)” value (“A11- and OC-detectable signals” below) in experiment [3] (setting [5]) is “gradually decreased signal intensities”; in experiment [3] (metal-free Aβ42 100 μM) it was “the formation of Aβ oligomers and fibrils were reduced”.
For the compound `O=c1cc(-c2ccccc2)oc2cc(O)cc(O)c12` [compound 1, chrysin], the “inhibitory activity against AChE (IC50 could not be obtained)” value in experiment [1] (fluorometric assay, eeAChE) is recorded as “negligible inhibitory activity”. In addition, the “effect on preformed metal-free Aβ and metal–Aβ aggregates” value in experiment [2] is “less noticeably affected”. The “A11- and OC-detectable signals” value in experiment [3] (setting [5]) and in experiment [3] (metal-free Aβ42 100 μM) was “not significantly varied” in each case.
In experiment [1], `O=c1cc(-c2ccccc2)oc2cc(O)c(O)cc12` [compound 2, 6,7-dihydroxyflavone] registered an IC50 of 4.18 µM. Also, the “effect on preformed metal-free Aβ and metal–Aβ aggregates” value in experiment [2] was “less noticeably affected”. Further, the “A11- and OC-detectable signals” value in experiment [3] (setting [5]) and in experiment [3] (metal-free Aβ42 100 μM) was “not significantly varied” throughout.
Consider `O=c1cc(-c2ccccc2)oc2ccc(O)c(O)c12` [compound 3, 5,6-dihydroxyflavone], for which, in experiment [1] (setting [4]), the concentration for half-maximal inhibition (IC50) is 4.51 µM. Further, in experiment [2], the “effect on preformed metal-free Aβ and metal–Aβ aggregates” value was “the reactivity was shown only in the presence of metal ions”.
On to `O=c1cc(-c2ccccc2)oc2cc(O)c(O)c(O)c12` [compound 4, baicalein], for which, in experiment [1], the IC50 turned out to be 1.95 µM. Moreover, the “effect on preformed metal-free Aβ and metal–Aβ aggregates” value in experiment [2] was “could disassemble preformed metal-free Aβ and metal–Aβ aggregates”. Further, the “A11- and OC-detectable signals” value in experiment [3] (metal-free Aβ42 100 μM) is “the formation of Aβ oligomers and fibrils were reduced”.
On to `O=c1cc(-c2ccccc2)oc2c(Cl)c(O)c(O)c(O)c12` [compound 5, 8-chlorobaicalein], for which the IC50 in experiment [1] (setting [4]) turned out to be 12.3 µM. For the same compound, in experiment [2], the “effect on preformed metal-free Aβ and metal–Aβ aggregates” value is “could disassemble preformed metal-free Aβ and metal–Aβ aggregates”. Also, the “A11- and OC-detectable signals” value in experiment [3] (metal-free Aβ42 100 μM) was “the formation of Aβ oligomers and fibrils were reduced”.
For `O=c1c(-c2ccc(O)c(O)c2)coc2cc(O)c(O)c(O)c12` [compound 6, 3-(3,4-dihydroxyphenyl)-5,6,7-trihydroxy-4H-chromen-4-one], in experiment [1] (setting [4]), the concentration for half-maximal inhibition (IC50) was determined as 0.19 µM. In addition, the “effect on preformed metal-free Aβ and metal–Aβ aggregates” value in experiment [2] was “affected their corresponding preformed Aβ aggregates and seeds”. Further, the “A11- and OC-detectable signals” value in experiment [3] (setting [5]) is “significantly decreased A11- and OC-detectable signal intensities”; in experiment [3] (metal-free Aβ42 100 μM) it was “significantly decreased A11- and OC-detectable signal intensities”.
